Test results: paper PMC8196973, “Synthesis, Molecular Docking Analysis and Biological Evaluations of Saccharide-Modified Thiadiazole Sulfonamide Derivatives” (International Journal of Molecular Sciences, 2021)
Values after ≈ are worked out from the molar mass of the structure shown.

Tests used:
[1] = target: hCA II (Homo sapiens, UniProt P00918); assay: hCA II enzyme inhibition assay (4-NPA hydrolysis)
Procedure: (§2) Carbonic anhydrase can catalyze the hydrolysis of 4-nitrophenyl acetate (4-NPA). […] The experimental buffer consisted of 15 mmol/L 4-(2-hydroxyethyl)-1-piperazineethanesulfonic acid (HEPES) (pH = 7.40), 0.01% tetraethylene glycol monododecyl ether (Brij), and 100 mmol/L NaCl. […] Then, 18 μL of enzyme solution was transferred into 384-well plates in duplicate. Stock solutions of the inhibitors (10.0 mmol/L) were prepared using DMSO as solvent, and then diluted 1:3 with DMSO. […] Then 2.00 μL of each inhibitor was added to each well. All compounds were allowed to incubate with the enzyme for 15 min at 25 °C to form the Enzyme-Inhibitor (E-I) complex. After that, substrate 4-NPA (1.00 mmol/L, 20.00 μL, Sigma-Aldrich, St. Louis, MI, USA) was added into the E-I complex solution and incubated for 60, 90, 90 min at 25 °C, respectively.

[2] = target: hCA IX (Homo sapiens, UniProt Q16790); assay: hCA IX enzyme inhibition assay (4-NPA hydrolysis)
Procedure: as §2

[3] = test system: human colon cancer HT-29 cells; assay: CCK-8 cell viability assay, HT-29; format: cell-based; details: Homo sapiens, HT-29; Table S2
Procedure: (§1) The MDA-MB-231, HT-29 and MG-63 cell lines were provided by KeyGEN BioTECH Ltd (Nanjing, Jiangsu, China). The cells were digested and counted to prepare a cell suspension of 5.0 × 10^4 cells/mL, and then 100 μL of cell suspension was added to each well of the 96-well cell culture plate. The plates were placed in a 37 °C, 5% CO2 incubator (Corning Incorporated, Corning, New York, USA) for 24 h. The drug was diluted with the culture medium to the required concentration, ed100 μL of the corresponding drug-containing medium was added to each well, and a negative control group was set up at the same time. The 96-well cell culture plates were placed into a normoxic incubator (37 °C, 5% CO2) and hypoxic incubator (37 °C, 5% CO2, 0.5% O2, 94.5% N2) for 48 h. Finally, the 96-well plate was stained with CCK-8 and the OD value determined (λ = 450 nm).

[4] = test system: breast adenocarcinoma MDA-MB-231 cells; assay: CCK-8 cell viability assay, MDA-MB-231; format: cell-based, human; details: Homo sapiens, MDA-MB-231; Table S2
Procedure: as §1

[5] = target: hCA XII (Homo sapiens, UniProt O43570); assay: hCA XII enzyme inhibition assay (4-NPA hydrolysis)
hCA XII, sequence (O43570 25-354): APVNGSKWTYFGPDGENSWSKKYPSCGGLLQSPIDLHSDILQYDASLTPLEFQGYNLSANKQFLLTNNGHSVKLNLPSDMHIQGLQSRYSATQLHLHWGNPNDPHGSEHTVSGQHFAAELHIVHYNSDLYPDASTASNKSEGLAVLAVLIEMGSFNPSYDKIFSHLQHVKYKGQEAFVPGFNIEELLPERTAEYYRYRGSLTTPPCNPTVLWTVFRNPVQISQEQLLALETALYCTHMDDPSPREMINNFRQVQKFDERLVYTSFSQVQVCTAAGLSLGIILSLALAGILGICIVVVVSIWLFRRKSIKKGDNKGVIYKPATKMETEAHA
Procedure: as §2

`NS(=O)(=O)c1nnc(NC(=O)c2ccc(NC(=O)CCC(=O)N[C@@H]3O[C@H](CO)[C@@H](O)[C@H](O)[C@H]3O)c([N+](=O)[O-])c2)s1` [Compound 14n, N^1-(2-Nitro-4-((5-sulfamoyl-1,3,4-thiadiazol-2-yl)carbamoyl)phenyl)-N^4-((2R,3R,4S,5S,6R)-3,4,5-trihydroxy-6-(hydroxymethyl)tetrahydro-2H-pyran-2-yl)succinimide] gave an IC50 [1] of 1400 ± 24.6 nM and an IC50 [2] of 291 ± 10.9 nM.

With `CC(=O)O[C@H]1C(=O)[C@@]2(C)[C@H]([C@H](OC(=O)c3ccccc3)[C@]3(O)C[C@H](OC(=O)[C@H](O)[C@@H](NC(=O)c4ccccc4)c4ccccc4)C(C)=C1C3(C)C)[C@]1(OC(C)=O)CO[C@@H]1C[C@@H]2O` [Taxol, reference compound] the IC50 [3] was 0.111 µg/mL (≈ 0.13 µM) and the IC50 [4] was 0.099 µg/mL (≈ 0.116 µM).

`Nc1ccc(C(=O)Nc2nnc(S(N)(=O)=O)s2)cc1` [Compound 12a, 4-Amino-N-(5-sulfamoyl-1,3,4-thiadiazol-2-yl)benzamide] was tested, and the IC50 [2] was 44.6 ± 8.3 nM.

Compound `NS(=O)(=O)c1nnc(NC(=O)c2ccc(NC(=O)CCC(=O)N[C@@H]3O[C@H](CO)[C@@H](O)[C@H](O)[C@H]3O)c(F)c2)s1` [Compound 14k, N^1-(2-Fluoro-4-((5-sulfamoyl-1,3,4-thiadiazol-2-yl)carbamoyl)phenyl)-N^4-((2R,3R,4S,5S,6R)-3,4,5-trihydroxy-6-(hydroxymethyl)tetrahydro-2H-pyran-2-yl)succinimide] has an IC50 [1] of 474 ± 7.1 nM and an IC50 [2] of 141 ± 8.1 nM.

Work on `Cc1cc(C(=O)Nc2nnc(S(N)(=O)=O)s2)ccc1NC(=O)CCCC(=O)N[C@@H]1O[C@H](CO)[C@@H](O)[C@H](O)[C@H]1O` [Compound 14g, N^1-(2-Methyl-4-((5-sulfamoyl-1,3,4-thiadiazol-2-yl)carbamoyl)phenyl)-N^5-((2R,3R,4S,5S,6R)-3,4,5-trihydroxy-6-(hydroxymethyl)tetrahydro-2H-pyran-2-yl)glutaramide] yielded an IC50 [1] of 165 ± 9.1 nM, an IC50 [2] of 53.4 ± 6.2 nM and an IC50 [5] of 70.5 ± 10.9 nM.

With `NS(=O)(=O)c1nnc(NC(=O)c2ccc(NC(=O)CCCC(=O)N[C@@H]3O[C@H](CO)[C@@H](O)[C@H](O)[C@H]3O)c(Cl)c2)s1` [Compound 14d, N^1-(2-Chloro-4-((5-sulfamoyl-1,3,4-thiadiazol-2-yl)carbamoyl)phenyl)-N^5-((2R,3R,4S,5S,6R)-3,4,5-trihydroxy-6-(hydroxymethyl)tetrahydro-2H-pyran-2-yl)glutaramide] the IC50 [1] was 765 ± 15.1 nM and the IC50 [2] was 280 ± 10.2 nM.

For `NS(=O)(=O)c1nnc(NC(=O)c2ccc(NC(=O)CCC(=O)N[C@@H]3O[C@H](CO)[C@@H](O)[C@H](O)[C@H]3O)c(Br)c2)s1` [Compound 14m, N^1-(2-Bromo-4-((5-sulfamoyl-1,3,4-thiadiazol-2-yl)carbamoyl)phenyl)-N^4-((2R,3R,4S,5S,6R)-3,4,5-trihydroxy-6-(hydroxymethyl)tetrahydro-2H-pyran-2-yl)succinimide], the IC50 [1] was 824 ± 11.1 nM and the IC50 [2] was 865 ± 10.7 nM.

Work on `NS(=O)(=O)c1nnc(NC(=O)c2ccc(NC(=O)CCC(=O)N[C@@H]3O[C@H](CO)[C@@H](O)[C@H](O)[C@H]3O)c(Cl)c2)s1` [Compound 14l, N^1-(2-Chloro-4-((5-sulfamoyl-1,3,4-thiadiazol-2-yl)carbamoyl)phenyl)-N^4-((2R,3R,4S,5S,6R)-3,4,5-trihydroxy-6-(hydroxymethyl)tetrahydro-2H-pyran-2-yl)succinimide] yielded an IC50 [1] of 612 ± 8.5 nM and an IC50 [2] of 256 ± 7.9 nM.

In the case of `Nc1ccc(C(=O)Nc2nnc(S(N)(=O)=O)s2)cc1[N+](=O)[O-]` [Compound 12f, 4-Amino-3-nitro-N-(5-sulfamoyl-1,3,4-thiadiazol-2-yl)benzamide], the IC50 [1] is reported as 701 ± 13.2 nM, the IC50 [2] is reported as 55.1 ± 11.5 nM and the “selectivity: inhibitory activity for hCA IX higher than that for hCA II” value ([2]; hCA IX over hCA II) is reported as 10 times.

`NS(=O)(=O)c1nnc(NC(=O)c2ccc(NC(=O)CCC(=O)NC3OC(CO)C(O)C(O)C3O)cc2)s1` [Compound 14i, N^1-(4-((5-Sulfamoyl-1,3,4-thiadiazol-2-yl)carbamoyl)phenyl)-N^4-((2R,3R,4S,5S,6R)-3,4,5-trihydroxy-6-(hydroxymethyl)tetrahydro-2H-pyran-2-yl)succinimide] showed an IC50 [1] of 197 ± 7.9 nM, an IC50 [2] of 54.9 ± 6.2 nM and an IC50 [5] of 52.8 ± 11.4 nM.

`NS(=O)(=O)c1nnc(NC(=O)c2ccc(NC(=O)CCCC(=O)N[C@@H]3O[C@H](CO)[C@@H](O)[C@H](O)[C@H]3O)c(F)c2)s1` [Compound 14c, N^1-(2-Fluoro-4-((5-sulfamoyl-1,3,4-thiadiazol-2-yl)carbamoyl)phenyl)-N^5-((2R,3R,4S,5S,6R)-3,4,5-trihydroxy-6-(hydroxymethyl)tetrahydro-2H-pyran-2-yl)glutaramide] was tested, and the IC50 [1] was 215 ± 9.5 nM, the IC50 [2] was 76.6 ± 6.2 nM and the IC50 [5] was 81.8 ± 11.1 nM.

For `Nc1cccc(C(=O)Nc2nnc(S(N)(=O)=O)s2)c1` [Compound 12b, 3-Amino-N-(5-sulfamoyl-1,3,4-thiadiazol-2-yl)benzamide], the IC50 [1] was 79.1 ± 5.4 nM and the IC50 [2] was 63.8 ± 6.3 nM.

In the case of `Nc1ccc(C(=O)Nc2nnc(S(N)(=O)=O)s2)cc1Cl` [Compound 12d, 4-Amino-3-chloro-N-(5-sulfamoyl-1,3,4-thiadiazol-2-yl)benzamide], the IC50 [1] is reported as 401 ± 12.3 nM and the IC50 [2] is reported as 36.5 ± 7.6 nM.

Compound `NS(=O)(=O)c1nnc(NC(=O)c2cccc(NC(=O)CCC(=O)N[C@@H]3O[C@H](CO)[C@@H](O)[C@H](O)[C@H]3O)c2)s1` [Compound 14j, N^1-(3-((5-Sulfamoyl-1,3,4-thiadiazol-2-yl)carbamoyl)phenyl)-N^4-((2R,3R,4S,5S,6R)-3,4,5-trihydroxy-6-(hydroxymethyl)tetrahydro-2H-pyran-2-yl)succinimide] has an IC50 [1] of 260 ± 12.6 nM, an IC50 [2] of 69.4 ± 5.7 nM and an IC50 [5] of 40.6 ± 6.9 nM.

In the case of `Nc1ccc(C(=O)Nc2nnc(S(N)(=O)=O)s2)cc1F` [Compound 12c, 4-Amino-3-fluoro-N-(5-sulfamoyl-1,3,4-thiadiazol-2-yl)benzamide], the IC50 [1] is reported as 242 ± 9.4 nM and the IC50 [2] is reported as 41.3 ± 6.2 nM.

Compound `Cc1cc(C(=O)Nc2nnc(S(N)(=O)=O)s2)ccc1N` [Compound 12g, 4-Amino-3-methyl-N-(5-sulfamoyl-1,3,4-thiadiazol-2-yl)benzamide] has an IC50 [1] of 120 ± 14.8 nM and an IC50 [2] of 43.8 ± 6.6 nM.

With `COc1cc(C(=O)Nc2nnc(S(N)(=O)=O)s2)ccc1N` [Compound 12h, 4-Amino-3-methoxy-N-(5-sulfamoyl-1,3,4-thiadiazol-2-yl)benzamide] the IC50 [1] was 147 ± 15.3 nM and the IC50 [2] was 36.4 ± 8.3 nM.

`Cc1cc(C(=O)Nc2nnc(S(N)(=O)=O)s2)ccc1NC(=O)CCC(=O)N[C@@H]1O[C@H](CO)[C@@H](O)[C@H](O)[C@H]1O` [Compound 14o, N^1-(2-Methy-4-((5-sulfamoyl-1,3,4-thiadiazol-2-yl)carbamoyl)phenyl)-N^4-((2R,3R,4S,5S,6R)-3,4,5-trihydroxy-6-(hydroxymethyl)tetrahydro-2H-pyran-2-yl)succinimide] was tested, and the IC50 [1] was 270 ± 13.9 nM and the IC50 [2] was 135 ± 7 nM.

`Nc1ccc(C(=O)Nc2nnc(S(N)(=O)=O)s2)cc1Br` [Compound 12e, 4-Amino-3-bromo-N-(5-sulfamoyl-1,3,4-thiadiazol-2-yl)benzamide] showed an IC50 [1] of 543 ± 10.3 nM and an IC50 [2] of 65.9 ± 8.3 nM.

`NS(=O)(=O)c1nnc(NC(=O)c2ccc(NC(=O)CCCC(=O)N[C@@H]3O[C@H](CO)[C@@H](O)[C@H](O)[C@H]3O)c(Br)c2)s1` [Compound 14e, N^1-(2-Bromo-4-((5-sulfamoyl-1,3,4-thiadiazol-2-yl)carbamoyl)phenyl)-N^5-((2R,3R,4S,5S,6R)-3,4,5-trihydroxy-6-(hydroxymethyl)tetrahydro-2H-pyran-2-yl)glutaramide] showed an IC50 [1] of 886 ± 13.7 nM and an IC50 [2] of 1082 ± 8.5 nM.

Work on `NS(=O)(=O)c1nnc(NC(=O)c2ccc(NC(=O)CCCC(=O)N[C@@H]3O[C@H](CO)[C@@H](O)[C@H](O)[C@H]3O)c([N+](=O)[O-])c2)s1` [Compound 14f, N^1-(2-Nitro-4-((5-sulfamoyl-1,3,4-thiadiazol-2-yl)carbamoyl)phenyl)-N^5-((2R,3R,4S,5S,6R)-3,4,5-trihydroxy-6-(hydroxymethyl)tetrahydro-2H-pyran-2-yl)glutaramide] yielded an IC50 [1] of 995 ± 10.6 nM and an IC50 [2] of 117 ± 6.9 nM.
